The values that follow come from US8394787B2, “7-aza-spiro[3.5]nonane-7-carboxylate derivatives, preparation thereof and therapeutic use thereof” (Sanofi, priority 2009, dated 2013).

The structures appear in SMILES notation.

For orientation: melting point means the temperature of the solid-liquid transition.

Series [1] deals with T1, enzyme FAAH (Fatty Acid Amide Hydrolase) (Mus musculus, UniProt O08914).
T1 construct: The membrane homogenates are prepared extemporaneously by homogenizing the tissues; from tissue; host or cells: mouse brain (minus the cerebellum), homogenate
T1 sequence (O08914 1-579): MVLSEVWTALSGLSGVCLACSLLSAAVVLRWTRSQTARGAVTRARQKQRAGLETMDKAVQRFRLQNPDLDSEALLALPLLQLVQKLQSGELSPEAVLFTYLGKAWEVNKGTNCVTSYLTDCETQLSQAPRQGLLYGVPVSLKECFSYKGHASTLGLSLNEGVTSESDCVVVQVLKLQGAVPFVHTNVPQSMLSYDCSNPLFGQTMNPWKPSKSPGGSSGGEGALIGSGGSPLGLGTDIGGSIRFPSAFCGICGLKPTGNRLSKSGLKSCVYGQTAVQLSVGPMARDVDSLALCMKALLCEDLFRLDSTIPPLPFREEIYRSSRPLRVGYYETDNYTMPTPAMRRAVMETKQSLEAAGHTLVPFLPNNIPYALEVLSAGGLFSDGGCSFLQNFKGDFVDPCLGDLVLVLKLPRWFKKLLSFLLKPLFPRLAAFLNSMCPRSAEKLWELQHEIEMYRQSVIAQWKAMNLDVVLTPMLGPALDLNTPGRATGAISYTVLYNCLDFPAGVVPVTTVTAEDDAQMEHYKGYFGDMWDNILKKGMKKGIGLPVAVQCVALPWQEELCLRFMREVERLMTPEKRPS
Nature of the series: FAAH radio-enzymatic test, hydrolysis of [1-3H ethanolamine] anandamide (protocol 1). The class given is biochemical. The settings on record: mouse brain membrane homogenate, anandamide 10 μM, 20 mins preincubation at 25° C., read-out: IC50 (concentration inhibiting 50% of the control enzymatic activity of FAAH). The method, then: (§1) The compounds of the invention were subjected to pharmacological tests to determine their inhibitory effect on the enzyme FAAH (Fatty Acid Amide Hydrolase).
Thus, mouse brains (minus the cerebellum) are removed and stored at −80° C. The membrane homogenates are prepared extemporaneously by homogenizing the tissues using a Precellys® machine in the reaction buffer (10 mM Tris-HCl, pH=8, 150 mM NaCl and 1 mM ethylenediaminetetraacetic acid (EDTA)). The enzymatic reaction is performed in 96-well Multiscreen filtration plates in a final volume of 70 μl. Reaction buffer supplemented with fatty acid-free bovine serum albumin (BSA, 1 mg/ml) is used for the enzymatic reaction and the dilution of the compounds and the [1-^3H ethanol-amine] anandamide. The reaction buffer containing BSA (43 μl/well), the diluted test compounds at different concentrations (7 μl/well containing 1% DMSO) and the membrane preparation (10 μl/well, i.e. 200 μg of tissue per test) are successively added to the wells. After preincubation of the compounds with the enzyme at 25° C. for 20 mins, the reaction is started by adding [1-^3H ethanolamine] anandamide. (Specific activity 15-20 Ci/mmol) diluted with cold anandamide (10 μl/well, final concentration 10 μM, 0.01 μCi per test). After incubation for 20 mins at 25° C., the enzymatic reaction is stopped by addition of a […] solution of active charcoal prepared in 1.5M NaCl and 0.5M HCl buffer (50 μl/well). The mixture is stirred for 10 mins and the aqueous phase containing the [1-^3H]ethanolamine is then recovered by filtration under vacuum and counted by liquid scintillation.

For series [2], the target named is T1, enzyme FAAH (Fatty Acid Amide Hydrolase). Nature of the series: FAAH fluorescence enzymatic test, hydrolysis of AAMC (protocol 2). The settings on record: mouse brain homogenate, AAMC 10 μM, 20 mins preincubation at 25° C., 40 mins at 37° C., read-out: IC50 (concentration inhibiting 50% of the control enzymatic activity of FAAH). Format: biochemical. The method, then:
as §1
Thus, mouse brains (minus the cerebellum) are removed and stored at −80° C. The brain homogenates are prepared extemporaneously by homogenizing the tissues using a Precellys® machine in the reaction buffer (10 mM Tris-HCl, pH=8, 150 mM NaCl and 1 mM ethylenediamine-tetraacetic acid (EDTA)). The enzymatic reaction is performed in black polystyrene 384-well plates in a final volume of 50 μl. Reaction buffer supplemented with fatty acid-free bovine serum albumin (BSA, 1 mg/ml) is used for the enzymatic reaction, dilution of the compounds and dilution of the AAMC. The reaction buffer containing BSA (25 μl/well), the diluted test compounds at different concentrations (5 μl/well containing 1% DMSO) and the membrane preparation (10 μl/well, i.e. 200 μg of tissue per test) are successively added to the wells. After preincubation of the compounds with the enzyme for 20 mins at 25° C., the reaction is started by addition of 10 μl of substrate per well (AAMC, final concentration 10 μM). After incubation for 40 mins at 37° C., the aminomethyl coumarin (AMC) produced is measured by fluorescent counting (Envision plate reader).

The test system of series [3] is male OF1 mice. Nature of the series: test of analgesia: PBQ-induced abdominal stretching. The class given is in vivo, mouse. The following applies: 30 mg/kg p.o. at 120 mins before PBQ. The method, then:
The in vivo activity of the compounds of the invention was evaluated in a test of analgesia.
Thus, the intraperitoneal (i.p.) administration of PBQ (phenylbenzoquinone, 2 mg/kg in 0.9% sodium chloride solution containing 5% ethanol) to male OF1 mice weighing 25 to 30 g causes abdominal stretching, on average 30 torsions or contractions during the period of 5 to 15 mins after injection. The test compounds are administered orally (p.o.) or intraperitoneally (i.p.) suspended in Tween 80 at 0.5%, 60 mins or 120 mins before the administration of PBQ. Under these conditions, the most powerful compounds reduce by 35% to 80% the number of stretches induced by the PBQ, in a dosage range lying between 1 and 30 mg/kg. For example, compound 25 of Table 1 reduces by 50% the number of stretches induced by the PBQ, at a dose of 30 mg/kg p.o. at 120 mins.

The compound `CNC(=O)c1cc(COC(=O)N2CCC3(CC(Oc4ccc(-c5ccc(F)cc5)cc4)C3)C2)on1` (single isomer, unassigned) [Compound 29, 3-methylcarbamoyl-isoxazol-5-ylmethyl 2-(4′-fluorobiphenyl-4-yloxy)-6-aza-spiro[3.4]octane-6-carboxylate] displayed a melting point of 135 to 137 °C. In addition, the IC50 in series [1] is 5.3 nM.

`CNC(=O)c1cc(COC(=O)N2CCC3(CC(Oc4ccc(-c5ccc(F)cc5)cc4)C3)C2)on1` (single isomer, unassigned) [Compound 32, 3-methylcarbamoyl-isoxazol-5-ylmethyl 2-(4′-fluorobiphenyl-4-yloxy)-6-aza-spiro[3.4]octane-6-carboxylate] came in with a melting point of 149 to 151 °C. Further, the IC50 in series [1] turned out to be 3 nM.

For the compound `CNC(=O)c1cc(COC(=O)N2CCC3(CC(Oc4ccc(-c5ccc(F)cc5)cc4)C3)C2)on1` (single isomer, unassigned) [Compound 33, 3-methylcarbamoyl-isoxazol-5-ylmethyl 2-(4′-fluorobiphenyl-4-yloxy)-6-aza-spiro[3.4]octane-6-carboxylate], the melting point was in the range of 150 to 152 °C. Moreover, in series [1], the IC50 was 19 nM.

Regarding `CNC(=O)c1cc(COC(=O)N2CCC3(CC2)CC(Oc2cccc(-c4ccc(F)cc4)c2)C3)on1` [Compound 7, 3-methylcarbamoyl-isoxazol-5-ylmethyl 2-(4′-fluorobiphenyl-3-yloxy)-7-aza-spiro[3.5]nonane-7-carboxylate], the IC50 in series [1] was determined as 19 nM.

`CNC(=O)c1cc(COC(=O)N2CCC3(CC2)CC(Oc2ccc(-c4ccc(F)cc4)cc2)C3)on1` [Compound 19, 3-methylcarbamoyl-isoxazol-5-ylmethyl 2-(4′-fluorobiphenyl-4-yloxy)-7-aza-spiro[3.5]nonane-7-carboxylate] registered a melting point of 174 to 176 °C. In addition, in series [2], the IC50 came out at 1.7 nM.

Compound `CNC(=O)c1cc(COC(=O)N2CC3(CC(Oc4ccc(-c5ccc(F)cc5)cc4)C3)C2)on1` [Compound 25, 3-methylcarbamoyl-isoxazol-5-ylmethyl 6-(4′-fluorobiphenyl-4-yloxy)-2-aza-spiro[3.3]heptane-2-carboxylate] yielded a melting point of 163 to 165 °C. The IC50 in series [2] came to 0.46 nM. In series [3], the “reduction of the number of stretches induced by the PBQ” value worked out at 50%.
